According to patent publication US20150105252A1, “SUBSTITUTED PYRAZOLES AS HERBICIDES” (E I DU PONT DE NEMOURS AND COMPANY, priority 2013, published 2015):

Key:
barnyardgrass [1] = test: Test A preemergence; type: in vivo, Echinochloa crus-galli; conditions: 0 to 100 scale
Outline: (§1)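 Pre- and postemergence greenhouse test; loam+sand; cpd in non-phytotox. solvent/surfactant; post at 1–2 leaf, 2–10 cm; visual score ~10 d, 0 = none, 100 = complete control.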

crabgrass, large [2] = test: Test A preemergence; type: in vivo, Digitaria sanguinalis; conditions: 0 to 100 scale
Outline: as §1

foxtail, giant [3] = test: Test A preemergence; type: in vivo, Setaria faberii; conditions: 0 to 100 scale
Outline: as §1

morningglory [4] = test: Test A preemergence; type: in vivo, Ipomoea spp.; conditions: 0 to 100 scale
Outline: as §1

pigweed [5] = test: Test A preemergence; type: in vivo, Amaranthus retroflexus; conditions: 0 to 100 scale
Outline: as §1

velvetleaf [6] = test: Test A preemergence; type: in vivo, Abutilon theophrasti; conditions: 0 to 100 scale
Outline: as §1

wheat [7] = test: Test A preemergence; type: in vivo, Triticum aestivum; conditions: preemergence
Outline: as §1

corn [8] = test: Test A preemergence; type: in vivo, Zea mays; conditions: 0 to 100 scale
Outline: as §1

barnyardgrass [9] = test: Test A postemergence; type: in vivo, Echinochloa crus-galli; conditions: Postemergence
Outline: as §1

crabgrass, large [10] = test: Test A postemergence; type: in vivo, Digitaria sanguinalis
Outline: as §1

foxtail, giant [11] = test: Test A postemergence; type: in vivo, Setaria faberii
Outline: as §1

morningglory [12] = test: Test A postemergence; type: in vivo, Ipomoea spp.
Outline: as §1

pigweed [13] = test: Test A postemergence; type: in vivo, Amaranthus retroflexus
Outline: as §1

velvetleaf [14] = test: Test A postemergence; type: in vivo, Abutilon theophrasti
Outline: as §1

wheat [15] = test: Test A postemergence; type: in vivo, Triticum aestivum
Outline: as §1

corn [16] = test: Test A postemergence; type: in vivo, Zea mays
Outline: as §1

rice = test: Test C flooded paddy test; type: in vivo, Oryza sativa; conditions: Flood
Outline: (§2)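 Ratings were visual and made relative to untreated controls after 13 to 15 greenhouse days.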

sedge, umbrella = test: Test C flooded paddy test; type: in vivo, Cyperus difformis; conditions: Flood
Outline: as §2

ducksalad = test: Test C flooded paddy test; type: in vivo, Heteranthera limosa; conditions: Flood
Outline: as §2

barnyardgrass [17] = test: Test C flooded paddy test; type: in vivo, Echinochloa crus-galli; conditions: Flood
Outline: as §2

[18] = Preemergence, 500 g ai/ha, 0 no effect, 100 complete control
[19] = preemergence, 125 g ai/ha, visual injury, approx. 10 days
[20] = 125 g ai/ha, visual injury, 0 to 100 scale, approx. 10 days
[21] = 500 g ai/ha, visual injury after approx. 10 days, 0 to 100 scale (0 no effect, 100 complete control)
[22] = 125 g ai/ha, 0 to 100 scale, 0 no effect, 100 complete control
[23] = 500 g ai/ha, visual rating after approx. 10 days, 0 to 100 scale (0 no effect, 100 complete control)
[24] = Postemergence, 500 g ai/ha, visual rating after approx. 10 days, 0 to 100 scale (0 no effect, 100 complete control)
[25] = postemergence, 125 g ai/ha, about 10 days, visual rating on 0 to 100 scale (0 no effect, 100 complete control)
[26] = 62 g ai/ha, scale 0 to 100 (0 no effect, 100 complete control)
[27] = 31 g ai/ha, scale 0 to 100 (0 no effect, 100 complete control)

CCc1cc(C(=O)NOC(C)(C)CC)nn1Cc1cccc(OC(F)(F)F)c1 [Compound 71]
Barnyardgrass plant response rating (barnyardgrass [1]; [18]): 80 | Barnyardgrass plant response rating (barnyardgrass [1]; [19]): 60 | Crabgrass, Large plant response rating (crabgrass, large [2]; [18]): 100 | Crabgrass, Large plant response rating (crabgrass, large [2]; [19]): 90 | Foxtail, Giant plant response rating (foxtail, giant [3]; [18]): 100 | Foxtail, Giant plant response rating (foxtail, giant [3]; [19]): 80 | Morningglory plant response rating (morningglory [4]; [18]): 50 | Morningglory plant response rating (morningglory [4]; [19]): 20 | Pigweed plant response rating (pigweed [5]; [18]): 100 | Pigweed plant response rating (pigweed [5]; [19]): 80 | Velvetleaf plant response rating (velvetleaf [6]; [18]): 40 | Velvetleaf plant response rating (velvetleaf [6]; [19]): 30 | Wheat plant response rating (wheat [7]; [20]): 0 | Wheat plant response rating (wheat [7]; [21]): 70 | Corn plant response rating (corn [8]; [18]): 10 | Corn plant response rating (corn [8]; [19]): 0 | Barnyardgrass plant response rating (barnyardgrass [9]; [22]): 30 | Barnyardgrass plant response rating (barnyardgrass [9]; [23]): 70 | Crabgrass, Large plant response rating (crabgrass, large [10]; [24]): 80 | Crabgrass, Large plant response rating (crabgrass, large [10]; [25]): 40 | Foxtail, Giant plant response rating (foxtail, giant [11]; [24]): 70 | Foxtail, Giant plant response rating (foxtail, giant [11]; [25]): 40 | Morningglory plant response rating (morningglory [12]; [24]): 40 | Morningglory plant response rating (morningglory [12]; [25]): 40 | Pigweed plant response rating (pigweed [13]; [24]): 80 | Pigweed plant response rating (pigweed [13]; [25]): 40 | Velvetleaf plant response rating (velvetleaf [14]; [24]): 100 | Velvetleaf plant response rating (velvetleaf [14]; [25]): 50 | Wheat plant response rating (wheat [15]; [24]): 50 | Wheat plant response rating (wheat [15]; [25]): 30 | Corn plant response rating (corn [16]; [24]): 50 | Corn plant response rating (corn [16]; [25]): 30 | Plant response rating, Rice (rice; [26]): 0 | Plant response rating, Rice (rice; 125 g ai/ha, scale 0 to 100): 30 | Plant response rating, Rice (rice; 250 g ai/ha, scale 0 to 100): 45 | Plant response rating, Sedge, Umbrella (sedge, umbrella; [26]): 70 | Plant response rating, Sedge, Umbrella (sedge, umbrella; 125 g ai/ha, scale 0 to 100): 75 | Plant response rating, Sedge, Umbrella (sedge, umbrella; 250 g ai/ha, scale 0 to 100): 85 | Plant response rating, Ducksalad (ducksalad; [26]): 0 | Plant response rating, Ducksalad (ducksalad; 125 g ai/ha, scale 0 to 100): 0 | Plant response rating, Ducksalad (ducksalad; 250 g ai/ha, scale 0 to 100): 0 | Plant response rating, Barnyardgrass (barnyardgrass [17]; [26]): 0 | Plant response rating, Barnyardgrass (barnyardgrass [17]; 125 g ai/ha, scale 0 to 100): 20 | Plant response rating, Barnyardgrass (barnyardgrass [17]; 250 g ai/ha, scale 0 to 100): 40

CCONC(=O)c1cc(C)n(Cc2cccc(OC(F)(F)F)c2)n1 [Compound 73]
Barnyardgrass plant response rating (barnyardgrass [1]; [18]): 60 | Barnyardgrass plant response rating (barnyardgrass [1]; [19]): 50 | Crabgrass, Large plant response rating (crabgrass, large [2]; [18]): 50 | Crabgrass, Large plant response rating (crabgrass, large [2]; [19]): 30 | Foxtail, Giant plant response rating (foxtail, giant [3]; [18]): 60 | Foxtail, Giant plant response rating (foxtail, giant [3]; [19]): 30 | Morningglory plant response rating (morningglory [4]; [18]): 30 | Morningglory plant response rating (morningglory [4]; [19]): 10 | Pigweed plant response rating (pigweed [5]; [18]): 100 | Pigweed plant response rating (pigweed [5]; [19]): 90 | Velvetleaf plant response rating (velvetleaf [6]; [18]): 60 | Velvetleaf plant response rating (velvetleaf [6]; [19]): 10 | Wheat plant response rating (wheat [7]; [20]): 0 | Wheat plant response rating (wheat [7]; [21]): 80 | Corn plant response rating (corn [8]; [18]): 50 | Corn plant response rating (corn [8]; [19]): 30 | Barnyardgrass plant response rating (barnyardgrass [9]; [22]): 40 | Barnyardgrass plant response rating (barnyardgrass [9]; [23]): 70 | Crabgrass, Large plant response rating (crabgrass, large [10]; [24]): 60 | Crabgrass, Large plant response rating (crabgrass, large [10]; [25]): 40 | Foxtail, Giant plant response rating (foxtail, giant [11]; [24]): 70 | Foxtail, Giant plant response rating (foxtail, giant [11]; [25]): 40 | Morningglory plant response rating (morningglory [12]; [24]): 40 | Morningglory plant response rating (morningglory [12]; [25]): 30 | Pigweed plant response rating (pigweed [13]; [24]): 90 | Pigweed plant response rating (pigweed [13]; [25]): 70 | Velvetleaf plant response rating (velvetleaf [14]; [24]): 80 | Velvetleaf plant response rating (velvetleaf [14]; [25]): 30 | Wheat plant response rating (wheat [15]; [24]): 40 | Wheat plant response rating (wheat [15]; [25]): 0 | Corn plant response rating (corn [16]; [24]): 80 | Corn plant response rating (corn [16]; [25]): 40 | Plant response rating, Rice (rice; [27]): 0 | Plant response rating, Rice (rice; [26]): 0 | Plant response rating, Rice (rice; 125 g ai/ha, scale 0 to 100): 0 | Plant response rating, Rice (rice; 250 g ai/ha, scale 0 to 100): 0 | Plant response rating, Sedge, Umbrella (sedge, umbrella; [27]): 0 | Plant response rating, Sedge, Umbrella (sedge, umbrella; [26]): 0 | Plant response rating, Sedge, Umbrella (sedge, umbrella; 125 g ai/ha, scale 0 to 100): 0 | Plant response rating, Sedge, Umbrella (sedge, umbrella; 250 g ai/ha, scale 0 to 100): 30 | Plant response rating, Ducksalad (ducksalad; [27]): 0 | Plant response rating, Ducksalad (ducksalad; [26]): 20 | Plant response rating, Ducksalad (ducksalad; 125 g ai/ha, scale 0 to 100): 45 | Plant response rating, Ducksalad (ducksalad; 250 g ai/ha, scale 0 to 100): 55 | Plant response rating, Barnyardgrass (barnyardgrass [17]; [27]): 0 | Plant response rating, Barnyardgrass (barnyardgrass [17]; [26]): 0 | Plant response rating, Barnyardgrass (barnyardgrass [17]; 125 g ai/ha, scale 0 to 100): 0 | Plant response rating, Barnyardgrass (barnyardgrass [17]; 250 g ai/ha, scale 0 to 100): 0
